# Key:
# [1] = test system: LegB (Cj1319, 4,6-dehydratase); test: LegB C4,6 dehydratase reaction with NDP-sugars; format: biochemical, Campylobacter jejuni 11168
# Procedure: (§1) Enzymatic reactions were performed for 4.5 h at 37° C., and then overnight at 25° C., with approximately 200 μg ml^−1 respective protein concentration using chemicals from Sigma (unless otherwise indicated). GDP-glucosamine biosynthesis. The ‘one-pot’ enzymatic synthesis of GDP-GlcN from Fru-6-P (I→IV) was accomplished using a 3 ml reaction containing His6PtmF, PtmAHis6, PgmLHis6, His6PtmE, 5 mM Fru-6-P (I), 10 mM L-Gln, 1 mM DTT, 5 mM MgCl2, 0.8 U ml^−1 pyrophosphatase, and 2.5 mM GTP in 25 mM Tris pH 7.5. Large-scale enzymatic synthesis of GDP-GlcN (IV) was accomplished using a 12 ml reaction containing 50 mM Tris pH 7.5, 1 mM GTP, 1 mM MgCl2, 0.8 U ml^−1 pyrophosphatase, 1.2 mM GlcN-1-P (III) and approximately 4.8 mg of His6PtmE. The large-scale enzymatic synthesis of GDP-GlcNAc was performed similar to that above, except the scale was increased five-fold and GlcNAc-1-P was used in place of GlcN-1-P (III). Assessment of His6PtmE substrate specificity was accomplished using 9 reactions, 80 μl each, containing 50 mM Tris pH 7.5, 2 mM MgCl2, 50 μg His6PtmE, and various combinations of 10 mM sugar-1-P (GalN-1-P, GlcN-1-P or GlcNAc-1-P) and 0.2 mM NTP (CTP, GTP, or TTP). Conversion of GDP-GlcN to GDP-GlcNAc. The His6GlmU reaction was performed using 1 mM GDP-GlcN (IV), 1.2 mM acetyl-CoA and His6GlmU in 25 mM sodium phosphate pH 7.8, 25 mM NaCl, 10 mM β-mercaptoethanol. In addition, a control reaction was performed containing 1 mM GlcN-1-P (III) instead of IV. Biosynthesis of legionaminic acid from GDP-GlcNAc. The stepwise enzymatic synthesis of intermediates or products was accomplished in 2 stages (V→VI→VII→VIII, and then VIII→IX→X) using 1 mM of V, 0.5 mM NAD, 0.8 mM PLP, 8 mM L-Glu, 1.2 mM acetyl-CoA, 1.2 mM PEP, LegBHis6, His6LegC, His6LegH, His6LegG, and His6LegI as appropriate, in 25 mM sodium phosphate pH 7.3, 25 mM NaCl. Assessment of His6LegG activity involved monitoring the reaction kinetics by ^1H NMR (see NMR spectroscopy) for 75 min using 0.75 mM GDP-2,4-diacetamido-2,4,6-trideoxy-α-D-Glc (VIII), 4 μg His6LegG in 200 μl of 25 mM sodium phosphate pH 7.3, 25 mM NaCl at 25° C. In addition, the substrate flexibility of His6LegG was assessed using a 300 μl reaction containing 40 μg His6LegG, 25 mM sodium phosphate pH 7.3, 25 mM NaCl, and 0.75 mM UDP-2,4-diacetamido-2,4,6-trideoxy-α-D-Glc, with incubation at 37° C. for 1.5 h, and then overnight at 25° C. Biosynthesis of CMP-legionaminic acid. The CMP-activation of legionaminic acid (X→XI) was performed using a 20 ml reaction containing approximately 0.2 mM of X, 50 mM MgCl2, 3 mM CTP, and 15 mg of LegFHis6 in 25 mM sodium phosphate pH 7.8, 25 mM NaCl, with incubation at 37° C. for 5 h, and then 25° C. for 72 h. Metabolite purification. Typically, reactions were passed through an Amicon Ultra-15 (10,000 molecular weight cut-off) or Ultra-4 (5,000 molecular weight cut-off) filter membrane before analysis. As required, NDP-sugar preparations (GDP-Glc, GDP-GlcN, GDP-GlcNAc, CDP-GlcNAc, TDP-GlcNAc, and CMP-Leg) were lyophilized and desalted/purified using a Superdex Peptide 10/300 GL (Amersham Biosciences) column in 25 mM ammonium bicarbonate, pH 7.9. For further purity, the NDP-sugar samples above were subjected to anion-exchange chromatography (Mono Q 4.6/100 PE, Amersham Biosciences) using ammonium bicarbonate pH 7.9. Quantification of NDP-sugar preparations was determined using the molar extinction coefficients of CMP (ε260=7,400), GDP (ε260=11,500), TDP (ε260=8,700), and UDP (ε260=10,000).
# CE analysis was performed using either a P/ACE 5510 or P/ACE MDQ system (Beckman Instruments, Mississauga, Ont) with diode array detection. The capillaries were bare silica 50 μm×50 cm, with a detector at 50 cm, and the running buffer was 25 mM sodium tetraborate pH 9.4. Samples were introduced by pressure injection for 6 sec, and the separation was performed at 18 kV for 20 min. Peak integration was done using the Beckman P/ACE station software.
# [2] = target: T1, His6GlmU (Cj0821, N-acetyltransferase) (Campylobacter jejuni subsp. jejuni serotype O:2, UniProt Q9PPA2); test: His6GlmU N-acetylation reaction (CE-MS); format: biochemical, Campylobacter jejuni 11168; settings: 1 mM substrate, 1.2 mM acetyl-CoA
# T1 construct: made in house; host or cells: E. coli BL21[DE3]
# T1 sequence (Q9PPA2 whole entry): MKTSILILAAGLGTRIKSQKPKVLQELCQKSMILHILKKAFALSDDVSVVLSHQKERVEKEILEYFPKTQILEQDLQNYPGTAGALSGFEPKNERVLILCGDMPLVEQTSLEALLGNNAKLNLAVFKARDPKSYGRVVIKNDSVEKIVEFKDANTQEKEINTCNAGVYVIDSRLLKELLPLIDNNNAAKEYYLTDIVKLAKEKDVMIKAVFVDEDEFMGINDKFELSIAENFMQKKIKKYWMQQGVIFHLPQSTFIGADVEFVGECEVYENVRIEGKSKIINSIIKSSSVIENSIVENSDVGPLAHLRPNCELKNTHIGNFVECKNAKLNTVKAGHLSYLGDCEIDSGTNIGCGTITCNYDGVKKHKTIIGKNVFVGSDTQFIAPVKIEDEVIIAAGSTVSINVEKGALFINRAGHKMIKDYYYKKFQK
# Procedure: (§2) Enzymatic reactions were performed for 4.5 h at 37° C., and then overnight at 25° C., with approximately 200 μg ml^−1 respective protein concentration using chemicals from Sigma (unless otherwise indicated). GDP-glucosamine biosynthesis. The ‘one-pot’ enzymatic synthesis of GDP-GlcN from Fru-6-P (I→IV) was accomplished using a 3 ml reaction containing His6PtmF, PtmAHis6, PgmLHis6, His6PtmE, 5 mM Fru-6-P (I), 10 mM L-Gln, 1 mM DTT, 5 mM MgCl2, 0.8 U ml^−1 pyrophosphatase, and 2.5 mM GTP in 25 mM Tris pH 7.5. Large-scale enzymatic synthesis of GDP-GlcN (IV) was accomplished using a 12 ml reaction containing 50 mM Tris pH 7.5, 1 mM GTP, 1 mM MgCl2, 0.8 U ml^−1 pyrophosphatase, 1.2 mM GlcN-1-P (III) and approximately 4.8 mg of His6PtmE. The large-scale enzymatic synthesis of GDP-GlcNAc was performed similar to that above, except the scale was increased five-fold and GlcNAc-1-P was used in place of GlcN-1-P (III). […] In addition, the substrate flexibility of His6LegG was assessed using a 300 μl reaction containing 40 μg His6LegG, 25 mM sodium phosphate pH 7.3, 25 mM NaCl, and 0.75 mM UDP-2,4-diacetamido-2,4,6-trideoxy-α-D-Glc, with incubation at 37° C. for 1.5 h, and then overnight at 25° C. […] Quantification of NDP-sugar preparations was determined using the molar extinction coefficients of CMP (ε260=7,400), GDP (ε260=11,500), TDP (ε260=8,700), and UDP (ε260=10,000). […]
# [3] = target: T2, His6LegG (Cj1328, NDP-sugar hydrolase/2-epimerase) (Campylobacter jejuni subsp. jejuni serotype O:2, UniProt Q0P8T0); test: His6LegG activity and substrate flexibility (1H NMR, CE); format: biochemical, Campylobacter jejuni 11168
# T2 construct: made in house; host or cells: E. coli BL21[DE3]
# T2 sequence (Q0P8T0 whole entry): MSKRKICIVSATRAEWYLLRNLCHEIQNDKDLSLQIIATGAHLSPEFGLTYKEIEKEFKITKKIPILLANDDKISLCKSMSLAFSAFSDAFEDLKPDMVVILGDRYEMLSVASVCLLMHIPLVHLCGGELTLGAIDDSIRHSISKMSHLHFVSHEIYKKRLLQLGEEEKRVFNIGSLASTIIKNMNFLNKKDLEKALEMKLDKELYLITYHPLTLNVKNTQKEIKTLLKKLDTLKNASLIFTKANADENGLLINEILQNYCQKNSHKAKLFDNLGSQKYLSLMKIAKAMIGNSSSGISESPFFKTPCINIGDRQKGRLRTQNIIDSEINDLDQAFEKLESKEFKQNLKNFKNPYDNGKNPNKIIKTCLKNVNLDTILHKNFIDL
# Procedure: as §1, with “The CMP-activation of legionaminic acid (X→XI) was performed using a 20 ml reaction containing approximately 0.2 mM of X, 50 mM MgCl2, 3 mM CTP, and 15 mg of LegFHis6 in 25 mM sodium phosphate pH 7.8, 25 mM NaCl, with incubation at 37° C. for 5 h, and then 25° C. for 72 h. Metabolite purification. Typically, reactions were passed through an Amicon Ultra-15 (10,000 molecular weight cut-off) or Ultra-4 (5,000 molecular weight cut-off) filter membrane before analysis. As required, NDP-sugar preparations (GDP-Glc, GDP-GlcN, GDP-GlcNAc, CDP-GlcNAc, TDP-GlcNAc, and CMP-Leg) were lyophilized and desalted/purified using a Superdex Peptide 10/300 GL (Amersham Biosciences) column in 25 mM ammonium bicarbonate, pH 7.9. For further purity, the NDP-sugar samples above were subjected to anion-exchange chromatography (Mono Q 4.6/100 PE, Amersham Biosciences) using ammonium bicarbonate pH 7.9.” left out, “(ε260=10,000). […]” for “(ε260=10,000).”
# [4] = test system: LegC (Cj1320, PLP-dependent aminotransferase); test: LegC aminotransferase reaction; format: biochemical, Campylobacter jejuni 11168; settings: L-Glu
# Procedure: as §2
# [5] = test system: LegH (Cj1298, N-acetyltransferase); test: LegH N-acetyltransferase reaction; format: biochemical, Campylobacter jejuni 11168; settings: acetyl-CoA
# Procedure: as §2
# [6] = target: T3, PglD (N-acetyltransferase) (Campylobacter jejuni subsp. jejuni serotype O:2, UniProt Q0P9D1); test: PglD N-acetyltransferase reaction; format: biochemical; settings: acetyl-CoA
# T3 construct: His6 (C); made in house; host or cells: E. coli BL21[DE3]
# T3 sequence (Q0P9D1 whole entry): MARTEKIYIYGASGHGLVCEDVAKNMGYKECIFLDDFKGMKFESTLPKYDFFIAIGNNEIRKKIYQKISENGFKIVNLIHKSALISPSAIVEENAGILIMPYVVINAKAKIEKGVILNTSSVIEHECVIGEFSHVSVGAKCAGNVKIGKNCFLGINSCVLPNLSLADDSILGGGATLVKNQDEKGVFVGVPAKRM
smiles,measurement,setting,value
"Nc1nc2c(ncn2C2OC(COP(=O)(O)OP(=O)(O)OC3OC(CO)C(O)C(O)C3N)C(O)C2O)c(=O)[nH]1 [IV, GDP-α-D-glucosamine]",LegB reaction product formation,[1]; in the presence or absence of NAD(P)+,did not yield discernable product
same,GlmU N-acetylation of substrate (conversion of IV to V),[2],not to completion
"CC(=O)N[C@H]1[C@@H](OP(=O)(O)OP(=O)(O)OC[C@H]2O[C@@H](n3cnc4c(=O)[nH]c(N)nc43)[C@H](O)[C@@H]2O)O[C@H](CO)[C@@H](O)[C@@H]1O [V, GDP-N-acetyl-α-D-glucosamine]","LegB C4,6 dehydration of substrate",[1]; NAD+ added exogenously,efficient turnover
same,"LegB C4,6 dehydration of substrate","[1]; reaction with substrate and LegB only, no exogenous NAD(P)+",failed
same,LegG turnover of substrate assessed by CE,[3],moderate efficiency
"CC(=O)N[C@H]1[C@@H](OP(=O)(O)OP(=O)(O)OC[C@H]2O[C@@H](n3cnc4c(=O)[nH]c(N)nc43)[C@H](O)[C@@H]2O)O[C@H](C)C(=O)[C@@H]1O [VI, GDP-2-acetamido-2,6-dideoxy-α-D-xylo-hexos-4-ulose]",LegC aminotransfer of substrate,[4],efficient aminotransfer
"CC(=O)NC1C(OP(=O)(O)OP(=O)(O)OCC2OC(n3cnc4c(=O)[nH]c(N)nc43)C(O)C2O)OC(C)C(N)C1O [VII, GDP-4-amino-4,6-dideoxy-N-acetyl-α-D-glucosamine]",LegH conversion of VII to VIII,[5],100%
same,PglD N-acetyltransfer of substrate,[6],able to catalyze N-acetyltransfer

# — patent publication US9157105B2, “Biosynthesis of CMP-legionaminic acid from fructose-6-P, and respective pathway intermediates, using novel GDP-linked precursors” (priority 2008, dated 2015)
